Measurements reported in patent publication US20130109698A1, “Small Molecule Inhibitors of Functions of the HIV-1 Matrix Protein” (priority 2010, published 2013).

Assays:
influenza H1N1 = assay: Antiviral spectrum: cytopathic effect assay; format: cell-based; conditions: influenza H1N1, up to 100 μM
yellow fever = format: cell-based; conditions: up to 100 μM
[1] = test system: respiratory syncytial virus; assay: Antiviral spectrum: cytopathic effect assay; format: cell-based
herpes simplex type 1 = assay: Antiviral spectrum: HSV-1 in Vero cells; format: cell-based; conditions: herpes simplex type 1, up to 100 μM
Protocol: The effects of the compounds on HSV-1 (dsDNA; strain HF evaluated in Vero cells; virus and cells obtained from the American Type Culture Collection [ATCC]) were assessed as described previously (Ptak et al., 2008, Antimicrob Agents Chemother 52:1302-1317).

SIV MAC251 = assay: Antiviral efficacy in PBMCs, reverse transcriptase activity; format: cell-based; conditions: for IC50 / IC90: Simian immunodeficiency virus, PBMC
Dengue serotypes 1-4 = assay: Antiviral spectrum: cytopathic effect assay; format: cell-based
[2] = test system: luciferase-reporter HIV-1 NL4-3 pseudotyped with HxBc2 envelope produced in 293T cells; assay: microbe, parasite or virus in culture
Chikungunya = assay: Antiviral spectrum: cytopathic effect assay; format: cell-based
HIV-1 93IN101 = assay: Anti-HIV efficacy in human PBMCs, reverse transcriptase activity; format: cell-based; conditions: HIV-1 93IN101, PBMCs; for IC50 / IC90: Human immunodeficiency virus 1, PBMC
Protocol: (§1) HIV human peripheral blood mononuclear cell (PBMC) assays were performed as described previously (Lanier et al., 2010, Antimicrob Agents Chemother 54:2901-2909 and Ptak et al., 2008, Antimicrob Agents Chemother 52:1302-1317). Briefly, fresh PBMCs, seronegative for HIV and hepatitis B virus (HBV), were isolated from blood samples of the screened donors (Biological Specialty Corporation, Colmar, Pa.) by using lymphocyte separation medium (LSM; density, 1.078±0.002 g/ml; Cellgro; Mediatech, Inc.) by following the manufacturer's instructions. Cells were stimulated by incubation in 4 μg/mL phytohemagglutinin (PHA; Sigma) for 48 to 72 h. Mitogenic stimulation was maintained by the addition of 20 U/mL recombinant human interleukin-2 (rhIL-2; R&D Systems, Inc.) to the culture medium. PHA-stimulated PBMCs from at least two donors were pooled, diluted in fresh medium, and added to 96-well plates at 5×10^4 cells/well. Cells were infected (final multiplicity of infection [MOI] of ≅0.1) in the presence of nine different concentrations of test compounds (triplicate wells/concentration) and incubated for 7 days. To determine the level of virus inhibition, cell-free supernatant samples were collected for analysis of reverse transcriptase activity (Buckheit et al., 1991, AIDS Res Hum Retroviruses 7:295-302). Following removal of supernatant samples, compound cytotoxicity was measured by the addition of 3-(4,5-dimethylthiazol-2-yl)-5-(3-carboxymethoxy-phenyl)-2-(4-sulfophenyl)-2H-tetrazolium (MTS; CellTiter 96 reagent; Promega) by following the manufacturer's instructions.

HIV-1 92BR030 = assay: as above; format: cell-based; conditions: HIV-1 92BR030, PBMCs; for IC50 / IC90: Human immunodeficiency virus 1, PBMC
Protocol: as §1

Japanese encephalitis = assay: Antiviral spectrum: cytopathic effect assay; format: cell-based
Vaccinia = format: cell-based; conditions: up to 100 μM
HIV-1 MA = biological target: T1, HIV-1 MA (Human immunodeficiency virus type 1 group M subtype B, UniProt P03348); assay: Surface plasmon resonance direct binding to immobilized HIV-1 MA; conditions: for direct interaction with sensor chip-immobilized HIV-1 MA: CM7 sensor chip, 10 μM (FIG. 14)
T1 construct: His6 (N, cleaved yes); SUMO (N, cleaved yes); made in house; host or cells: Escherichia coli BL21 (DE3) Codon+-RIL
Text: An assay was devised to monitor the interactions of small-molecule compounds to HIV-1 MA using SPR. In this assay, HIV-1LA1 MA was immobilized to the flow cells of a CM5 sensor chip to high density (˜1.3 kRU) or a CM7 sensor chip to high density (19 kRU) using standard amine coupling. A reference surface was similarly created by immobilizing the SUMO protein or a nonspecific antibody ARC4033 (antimouse/rat interferon-γ: BioSource). In small-molecule assays, the buffering system used is important due to the low responses obtained in binding assays. […] A stock solution of the MTI compounds was prepared by dissolving in 100% dimethyl sulfoxide (DMSO) to a final concentration of 10 mM.
To prepare the sample for analysis, 30 μL of the stock solution of the compound of the invention was added to sample preparation buffer (PBS, pH 7.2) to a final volume of 1 mL and mixed thoroughly. Preparation of analyte in this manner ensured that the concentration of DMSO was matched with that of running buffer with 3% DMSO. Lower concentrations of each compound were then prepared by two-fold serial dilutions into running buffer (PBS, 3% DMSO, pH 7.2). These compound dilutions were then injected over the control and MA surfaces at a flow rate of 30 μL min^−, for a 4-min association phase, followed by a 5-min dissociation phase.
In one aspect, owing to the relatively fast dissociation rates of these compounds, regeneration of these surfaces was accomplished by extensive washing of the system followed by a 5 min wait phase, a second wash, and a final 15 min wait phase. To secure complete regeneration, a buffer injection (5 min^on/5 min^off) was performed before each subsequent injection of compound.
Response to a small-molecule compound (NBD-556) specific for HIV-1 gp120 was also monitored to ensure specificity.
Data analysis was performed using BIAEvaluation 4.0 software (GE Healthcare). The responses of a buffer injection and responses from the ARC4033-immobilized reference cell were subtracted to account for nonspecific binding. The average maximum response was generated from a minimum of 3 data sets and was used to define the standard deviation for each compound binding to the HIV-1 MA protein.
The MTI compounds are predicted to interact with HIV-1 MA and thereby disrupt its functioning during the HIV-1 replication cycle. However, it is possible that a compound might exert its action via another mechanism not involving MA. Therefore, studies were performed to determine that the MTI compounds are directed against HIV-1 MA. The direct interaction of compounds CMPD-18, CMPD-17, CMPD-7, and CMPD-14 with HIV-1 MA was assayed using surface plasmon resonance interaction analyses. Wild-type HIV-1 MA protein was overproduced in E. coli using the pETHSUL expression system and purified using successive IMAC strategies, followed by an ion exchange chromatographic step as outlined in Materials and Methods. FIG. 6 illustrates the purification profile of HIV-1 MA. The purified MA was then immobilized onto the surface of a high-capacity CM7 sensor chip. Similarly, the monoclonal antibody ARC4033 (antimouse/rat interferon-γ; BioSource, Invitrogen, Carlsbad, Calif.) was immobilized on a CM7 sensor chip and was used to correct for background binding and instrument and buffer artifacts.

Structure (SMILES) | inhibitory effects on replication (influenza H1N1) | inhibitory effects on replication (yellow fever) | inhibitory effects on replication [1] | inhibitory effects on replication (herpes simplex type 1) | Antiviral index (TC50/IC50) (SIV MAC251) | IC50 (SIV MAC251) | IC90 (SIV MAC251) | inhibitory effects on replication (Dengue serotypes 1-4) | IC50 [2] | inhibitory effects on replication (Chikungunya) | Antiviral index (TC50/IC50) (HIV-1 93IN101) | IC50 (HIV-1 93IN101) | IC90 (HIV-1 93IN101) | Antiviral index (TC50/IC50) (HIV-1 92BR030) | IC50 (HIV-1 92BR030) | IC90 (HIV-1 92BR030) | inhibitory effects on replication (Japanese encephalitis) | inhibitory effects on replication (Vaccinia) | direct interaction with sensor chip-immobilized HIV-1 MA (HIV-1 MA) | interaction with HIV-1 MA versus SUMO (HIV-1 MA; 25.1 μM (FIG. 11))
Cc1ccc(NC(=O)CN2CCN(Cc3nc(-c4ccc(F)cc4)no3)CC2)cc1 [CMPD-7, 2-(4-((3-(4-fluorophenyl)-1,2,4-oxadiazol-5-yl)methyl)piperazin-1-yl)-N-(p-tolyl)acetamide] | no inhibitory effects | no inhibitory effects | no inhibitory effects | no inhibitory effects | > 10.55 | 9.48 µM | 31 µM | no inhibitory effects | 28 µM | no inhibitory effects | > 6.13 | 16.3 µM | > 100 µM | > 10.72 | 9.33 µM | > 100 µM | no inhibitory effects | no inhibitory effects | directly interacted | –
CCOc1ccc(NC(=O)Cc2cn3ccsc3n2)cc1S(=O)(=O)N1CCCCC1 [CMPD-18, N-(4-ethoxy-3-(piperidin-1-ylsulfonyl)phenyl)-2-(imidazo[2,1-b]thiazol-6-yl)acetamide] | no inhibitory effects | no inhibitory effects | no inhibitory effects | no inhibitory effects | 1.06 | 87.1 µM | > 100 µM | no inhibitory effects | > 100 µM | no inhibitory effects | 3.00 | 30.8 µM | 85.2 µM | 3.95 | 23.4 µM | 94 µM | no inhibitory effects | no inhibitory effects | directly interacted | specific interaction
O=C(CNC(=O)COc1ccccc1)NCc1ccc(C(=O)N2CCCCC2)cc1 [CMPD-14, N-(2-oxo-2-((4-(piperidine-1-carbonyl)benzyl)amino)ethyl)-2-phenoxyacetamide] | no inhibitory effects | no inhibitory effects | no inhibitory effects | no inhibitory effects | > 5.85 | 17.1 µM | 44.2 µM | no inhibitory effects | 95 µM | no inhibitory effects | > 5.56 | 18 µM | 62.1 µM | > 4.51 | 22.2 µM | 68.6 µM | no inhibitory effects | no inhibitory effects | directly interacted | –
